From patent US12421227B2, “Ribociclib salts and solid state forms thereof” (ASSIA CHEMICAL INDUSTRIES LTD., priority 2017, dated 2025)

Tests used:
[1] = cited from earlier work
[2] = exposure to 90% RH; cited from earlier work

hygroscopicity	Substance	sorption/desorption behavior, hydrate formation ([1]; 90% RH condition in each cycle)	moisture absorbed ([1]; at 90% RH in each cycle)	hygroscopic behavior ([1]; at high humidity conditions)	physical form on exposure to humidity [2]
–	Ribociclib succinate	formation of hydrate form is taking place	up to 2%	slight hygroscopic behavior	change in physical form
negligible hygroscopicity	Ribociclib succinate [Form B]	–	–	–	–
